Earlier results as cited in patent US20190090531A1, “TOBACCO FILLING FOR NON-COMBUSTION-TYPE HEATING SMOKING ARTICLE” (JAPAN TOBACCO INC., priority 2016, published 2019).
Where two headings read alike, the source gives them in different places.

[1] = Table 1, in water at normal temperature (25° C.)

Row | Structure (SMILES) | Acid dissociation constant pKa1 [1] | Acid dissociation constant pKa1 (Table 2, in water at 25° C.)
1 | CC(=O)C(=O)O [Pyruvic acid] | 2.50 | –
2 | CCCCCCCCCCCCCCCCCCCCCCCCCCCC(=O)O [Octacosanoic acid] | ≈5.00 | –
3 | CCCCCCCCCC(=O)O [Decanoic acid] | 4.90 | –
4 | CCCCCCCCCCCCCCCCCCCCCCCC(=O)O [Lignoceric acid] | ≈5.00 | ≈5.00
5 | CCCCCCCCCCCCCCCCCCC(=O)O [Nonadecanoic acid] | ≈5.00 | ≈5.00
6 | CCCCCCCCCCCCCC(=O)O [Myristic acid] | ≈5.00 | –
7 | CC/C=C\C/C=C\C/C=C\CCCCCCCC(=O)O [Linolenic acid] | ≈5.00 | –
8 | CCCCCCCCCCCCCCCCCC(=O)O [Stearic acid] | ≈5.00 | –
9 | CCCCCCCCCCCC(=O)O [Lauric acid] | 5.20 | –
10 | C/C=C/C=C/C(=O)O [Sorbic acid] | 4.76 | –
11 | O=C1O[C@H]([C@H](O)CO)C(O)=C1O [Isoascorbic acid] | 4.13 | 4.13
12 | CCCCCCCCCCCCCCCC(=O)O [Palmitic acid] | ≈5.00 | –
13 | CC(=O)CCC(=O)O [Levulinic acid] | 4.44 | –
14 | CCCCCCCCCCCCCCCCCCCCC(=O)O [Heneicosanoic acid] | ≈5.00 | –
